Columns and labels:
[1] = molecular target: D(3) dopamine receptor (Homo sapiens) (UniProt P35462); experiment: Antagonist activity at human D3R expressed in CHO-K1 cells assessed as inhibition of dopamine induced cAMP accumulation after 30 mins by HTRF method; type: functional, cell-based
[2] = tested on: Cavia porcellus; experiment: Cardiotoxicity in guinea pig assessed as effect on PR interval time at 5 mg/kg, ip measured after 10 mins by ECG analysis (reference value: 58.8 to 63.8 milliseconds); type: toxicity, organism-based; details: in vivo
[3] = tested on: Cavia porcellus; experiment: Cardiotoxicity in guinea pig assessed as effect on RR interval time at 5 mg/kg, ip measured after 80 mins by ECG analysis (reference value: 208.4 to 238.4 milliseconds); type: toxicity, organism-based; details: in vivo
[4] = tested on: Cavia porcellus; experiment: Cardiotoxicity in guinea pig assessed as effect on QTc interval time at 5 mg/kg, ip measured after 10 mins by ECG analysis (reference value: […] to […] milliseconds); type: toxicity, organism-based; details: in vivo
[5] = molecular target: 5-hydroxytryptamine receptor 2B (Homo sapiens) (UniProt P41595); experiment: Agonist activity at human 5-HT2BR expressed in CHO cells assessed as induction of IP1 accumulation at 10^-6 M after 30 mins by HTRF method; type: functional, cell-based
5-hydroxytryptamine receptor 2B (Homo sapiens), sequence (P41595 whole entry): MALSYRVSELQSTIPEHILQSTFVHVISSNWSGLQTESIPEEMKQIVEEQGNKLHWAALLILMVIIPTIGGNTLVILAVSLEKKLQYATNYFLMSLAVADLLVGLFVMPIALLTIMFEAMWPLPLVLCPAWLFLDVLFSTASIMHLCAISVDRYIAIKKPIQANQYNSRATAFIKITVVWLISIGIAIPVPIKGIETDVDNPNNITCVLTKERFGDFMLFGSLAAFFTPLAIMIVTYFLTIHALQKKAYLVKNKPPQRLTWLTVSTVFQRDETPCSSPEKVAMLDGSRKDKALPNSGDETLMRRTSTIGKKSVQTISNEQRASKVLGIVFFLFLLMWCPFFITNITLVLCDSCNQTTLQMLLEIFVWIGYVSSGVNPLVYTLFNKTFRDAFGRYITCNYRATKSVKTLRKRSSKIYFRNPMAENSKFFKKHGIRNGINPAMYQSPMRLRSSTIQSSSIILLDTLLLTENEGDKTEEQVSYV

[6] = tested on: Cavia porcellus; experiment: Cardiotoxicity in guinea pig assessed as effect on RR interval time at 5 mg/kg, ip measured after 50 mins by ECG analysis (reference value: 208.4 to 238.4 milliseconds); type: toxicity, organism-based; details: in vivo
[7] = tested on: Cavia porcellus; experiment: Cardiotoxicity in guinea pig assessed as effect on QT interval time at 5 mg/kg, ip measured after 40 mins by ECG analysis (reference value: 127.6 to 131.2 milliseconds); type: toxicity, organism-based; details: in vivo
[8] = Drug level in Wistar rat brain at 3 mg/kg, ip measured after 30 mins by LC-MS/MS analysis; type: ADME, organism-based; details: read-out: Drug uptake
[9] = tested on: Cavia porcellus; experiment: Cardiotoxicity in guinea pig assessed as effect on QTc interval time at 5 mg/kg, ip measured after 80 mins by ECG analysis (reference value: […] to […] milliseconds); type: toxicity, organism-based; details: in vivo
[10] = tested on: Cavia porcellus; experiment: Cardiotoxicity in guinea pig assessed as QT prolongation at 10 mg/kg, ip; type: toxicity, organism-based; details: in vivo
[11] = species: Rattus norvegicus; experiment: animal or person; details: Sprague-Dawley, ip, read-out: MED
Description: Reversal of ketamine-induced working social withdrawal in ip dosed Sprague-Dawley rat pretreated for 60 mins followed by ketamine administration

[12] = tested on: Cavia porcellus; experiment: Cardiotoxicity in guinea pig assessed as effect on QRS interval time at 5 mg/kg, ip measured after 10 mins by ECG analysis (reference value: 26.2 to 31.6 milliseconds); type: toxicity, organism-based; details: in vivo
[13] = molecular target: T1, 5-hydroxytryptamine receptor 6 (Homo sapiens, UniProt P50406); experiment: biochemical
T1 sequence (P50406 whole entry): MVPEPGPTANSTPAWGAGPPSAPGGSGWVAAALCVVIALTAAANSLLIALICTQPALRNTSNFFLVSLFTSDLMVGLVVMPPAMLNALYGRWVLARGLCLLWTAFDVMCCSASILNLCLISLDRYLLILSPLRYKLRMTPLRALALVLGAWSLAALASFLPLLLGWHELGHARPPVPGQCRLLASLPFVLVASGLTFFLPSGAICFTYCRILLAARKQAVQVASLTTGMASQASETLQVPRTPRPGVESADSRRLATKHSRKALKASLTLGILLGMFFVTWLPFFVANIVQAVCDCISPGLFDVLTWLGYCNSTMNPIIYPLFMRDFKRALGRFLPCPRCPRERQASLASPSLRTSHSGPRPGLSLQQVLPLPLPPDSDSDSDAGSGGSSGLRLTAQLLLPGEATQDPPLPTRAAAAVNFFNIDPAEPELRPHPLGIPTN
Description: Displacement of [3H]-LSD from human 5-HT6R expressed in HEK293 cell membranes after 1 hr at 37 degC by microbeta counting method

[14] = molecular target: T1, 5-hydroxytryptamine receptor 6; experiment: Antagonist activity at human 5-HT6R expressed in CHO-K1 cells assessed as inhibition of serotonin-induced cAMP accumulation after 30 mins by chemiluminescence-based assay; type: functional, cell-based
[15] = tested on: Rattus norvegicus; experiment: Cardiotoxicity in Wistar rat assessed as effect on blood pressure at 2 to 5 mg/kg, iv; type: toxicity, organism-based; details: in vivo
[16] = Drug level in Wistar rat plasma at 3 mg/kg, ip measured after 30 mins by LC-MS/MS analysis; type: ADME, organism-based
[17] = tested on: Cavia porcellus; experiment: Cardiotoxicity in guinea pig assessed as effect on PR interval time at 5 mg/kg, ip measured after 40 mins by ECG analysis (reference value: 58.8 to 63.8 milliseconds); type: toxicity, organism-based; details: in vivo
[18] = tested on: Cavia porcellus; experiment: Cardiotoxicity in guinea pig assessed as effect on QT interval time at 5 mg/kg, ip measured after 10 mins by ECG analysis (reference value: 127.6 to 131.2 milliseconds); type: toxicity, organism-based; details: in vivo
[19] = tested on: Cavia porcellus; experiment: Cardiotoxicity in guinea pig assessed as effect on QTc interval time at 5 mg/kg, ip measured after 20 mins by ECG analysis (reference value: […] to […] milliseconds); type: toxicity, organism-based; details: in vivo
[20] = molecular target: Cytochrome P450 2D6 (Homo sapiens, UniProt P10635); experiment: Inhibition of human supersome CYP2D6 using bufuralol as substrate assessed as bufuralol 1'-hydroxylation after 30 mins by HPLC-UV detection; type: ADME
Cytochrome P450 2D6, sequence (P10635 whole entry): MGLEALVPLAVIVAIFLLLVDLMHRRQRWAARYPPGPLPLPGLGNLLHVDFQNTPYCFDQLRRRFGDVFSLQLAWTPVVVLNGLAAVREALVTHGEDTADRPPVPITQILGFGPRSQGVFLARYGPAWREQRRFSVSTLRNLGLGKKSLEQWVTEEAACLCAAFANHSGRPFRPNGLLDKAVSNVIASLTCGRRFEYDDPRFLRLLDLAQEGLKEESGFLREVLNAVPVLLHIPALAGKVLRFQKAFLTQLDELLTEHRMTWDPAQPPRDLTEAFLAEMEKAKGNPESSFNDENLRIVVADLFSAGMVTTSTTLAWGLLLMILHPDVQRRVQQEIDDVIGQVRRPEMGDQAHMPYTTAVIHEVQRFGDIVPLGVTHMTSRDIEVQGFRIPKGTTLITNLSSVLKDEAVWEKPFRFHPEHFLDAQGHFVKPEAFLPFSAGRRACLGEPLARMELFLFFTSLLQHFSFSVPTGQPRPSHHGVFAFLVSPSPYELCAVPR

[21] = tested on: Rattus norvegicus; experiment: Toxicity in Sprague-Dawley rat assessed as induction of catalepsy at 30 mg/kg, ip measured every 30 mins up to 240 mins by bar test; type: organism-based; details: in vivo
[22] = molecular target: Sodium-dependent dopamine transporter (Homo sapiens) (UniProt Q01959); experiment: Displacement of [3H]-BTCP from human DAT expressed in CHO cells at 10^-6 M after 120 mins by scintillation counting method relative to control; type: cell-based
Sodium-dependent dopamine transporter (Homo sapiens), sequence (Q01959 whole entry): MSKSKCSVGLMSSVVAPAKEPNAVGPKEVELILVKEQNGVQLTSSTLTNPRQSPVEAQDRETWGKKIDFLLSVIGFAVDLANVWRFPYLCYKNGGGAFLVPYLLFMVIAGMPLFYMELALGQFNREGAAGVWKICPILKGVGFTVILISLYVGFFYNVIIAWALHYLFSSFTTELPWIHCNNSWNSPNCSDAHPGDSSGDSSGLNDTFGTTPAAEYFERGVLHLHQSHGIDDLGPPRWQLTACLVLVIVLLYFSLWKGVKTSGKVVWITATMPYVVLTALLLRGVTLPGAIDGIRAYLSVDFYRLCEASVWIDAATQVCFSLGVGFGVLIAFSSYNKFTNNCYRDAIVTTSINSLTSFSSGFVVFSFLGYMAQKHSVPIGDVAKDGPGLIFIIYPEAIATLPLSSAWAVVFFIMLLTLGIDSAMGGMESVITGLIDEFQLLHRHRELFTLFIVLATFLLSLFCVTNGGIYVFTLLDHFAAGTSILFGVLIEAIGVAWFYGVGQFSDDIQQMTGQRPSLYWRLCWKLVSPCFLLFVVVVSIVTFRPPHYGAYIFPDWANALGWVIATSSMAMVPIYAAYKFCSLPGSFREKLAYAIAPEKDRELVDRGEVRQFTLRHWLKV

[23] = molecular target: Sodium-dependent noradrenaline transporter (Homo sapiens) (UniProt P23975); experiment: Displacement of [3H]-nisoxetine from human NET expressed in CHO cells at 10^-6 M after 120 mins by scintillation counting method relative to control; type: cell-based
Sodium-dependent noradrenaline transporter (Homo sapiens), sequence (P23975 whole entry): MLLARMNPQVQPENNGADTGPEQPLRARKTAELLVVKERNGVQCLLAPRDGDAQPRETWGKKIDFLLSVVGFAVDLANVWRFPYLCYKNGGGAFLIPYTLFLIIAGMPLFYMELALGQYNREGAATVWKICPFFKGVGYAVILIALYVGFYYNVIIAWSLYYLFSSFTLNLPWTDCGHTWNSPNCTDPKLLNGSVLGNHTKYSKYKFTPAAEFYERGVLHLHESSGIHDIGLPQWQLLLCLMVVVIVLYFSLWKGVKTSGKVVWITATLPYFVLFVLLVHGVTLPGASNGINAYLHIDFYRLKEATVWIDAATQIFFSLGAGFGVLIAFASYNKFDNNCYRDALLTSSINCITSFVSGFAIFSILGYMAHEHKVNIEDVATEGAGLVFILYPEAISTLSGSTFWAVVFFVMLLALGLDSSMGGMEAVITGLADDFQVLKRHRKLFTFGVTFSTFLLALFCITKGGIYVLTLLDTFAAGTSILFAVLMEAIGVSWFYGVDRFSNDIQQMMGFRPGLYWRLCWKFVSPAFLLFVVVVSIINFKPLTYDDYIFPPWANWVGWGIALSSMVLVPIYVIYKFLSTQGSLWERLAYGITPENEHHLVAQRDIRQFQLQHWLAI

[24] = molecular target: 5-hydroxytryptamine receptor 1D (Rattus norvegicus) (UniProt P28565); experiment: Antagonist activity at rat 5-HT1DR expressed in CHO cells assessed as inhibition of serotonin-induced response by cellular dielectric spectroscopy; type: functional, cell-based
5-hydroxytryptamine receptor 1D (Rattus norvegicus), sequence (P28565 whole entry): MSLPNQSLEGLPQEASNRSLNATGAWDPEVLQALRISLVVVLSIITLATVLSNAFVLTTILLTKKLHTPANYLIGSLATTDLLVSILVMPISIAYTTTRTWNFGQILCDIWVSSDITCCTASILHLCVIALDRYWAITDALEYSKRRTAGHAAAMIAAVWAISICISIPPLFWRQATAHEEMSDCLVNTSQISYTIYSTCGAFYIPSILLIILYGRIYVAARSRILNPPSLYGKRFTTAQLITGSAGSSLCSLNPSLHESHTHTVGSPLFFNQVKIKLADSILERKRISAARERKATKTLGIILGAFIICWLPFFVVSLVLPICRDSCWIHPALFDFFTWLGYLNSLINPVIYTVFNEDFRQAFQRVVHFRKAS

[25] = molecular target: D(4) dopamine receptor (Homo sapiens) (UniProt P21917); experiment: Displacement of [3H]-methyl-spiperone from human dopamine D4 receptor expressed in CHO cells at 10^-6 M after 60 mins by scintillation counting method relative to control; type: cell-based
D(4) dopamine receptor (Homo sapiens), sequence (P21917 whole entry): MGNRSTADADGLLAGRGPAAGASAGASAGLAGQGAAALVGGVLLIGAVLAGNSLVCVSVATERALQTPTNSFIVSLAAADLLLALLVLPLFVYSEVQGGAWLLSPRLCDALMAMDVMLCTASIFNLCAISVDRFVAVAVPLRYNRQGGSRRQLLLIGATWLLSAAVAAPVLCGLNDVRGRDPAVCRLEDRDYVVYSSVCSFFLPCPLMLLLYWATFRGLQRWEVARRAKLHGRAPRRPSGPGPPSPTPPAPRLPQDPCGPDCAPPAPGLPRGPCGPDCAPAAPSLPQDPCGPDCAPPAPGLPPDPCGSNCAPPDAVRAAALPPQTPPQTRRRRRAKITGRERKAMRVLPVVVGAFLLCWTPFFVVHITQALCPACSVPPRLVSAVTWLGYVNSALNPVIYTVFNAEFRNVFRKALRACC

[26] = molecular target: Alpha-2C adrenergic receptor (Homo sapiens) (UniProt P18825); experiment: Displacement of [3H]-RX 821002 from human adrenergic alpha2C receptor expressed in CHO cells at 10^-6 M after 60 mins by scintillation counting method relative to control; type: cell-based
Alpha-2C adrenergic receptor (Homo sapiens), sequence (P18825 whole entry): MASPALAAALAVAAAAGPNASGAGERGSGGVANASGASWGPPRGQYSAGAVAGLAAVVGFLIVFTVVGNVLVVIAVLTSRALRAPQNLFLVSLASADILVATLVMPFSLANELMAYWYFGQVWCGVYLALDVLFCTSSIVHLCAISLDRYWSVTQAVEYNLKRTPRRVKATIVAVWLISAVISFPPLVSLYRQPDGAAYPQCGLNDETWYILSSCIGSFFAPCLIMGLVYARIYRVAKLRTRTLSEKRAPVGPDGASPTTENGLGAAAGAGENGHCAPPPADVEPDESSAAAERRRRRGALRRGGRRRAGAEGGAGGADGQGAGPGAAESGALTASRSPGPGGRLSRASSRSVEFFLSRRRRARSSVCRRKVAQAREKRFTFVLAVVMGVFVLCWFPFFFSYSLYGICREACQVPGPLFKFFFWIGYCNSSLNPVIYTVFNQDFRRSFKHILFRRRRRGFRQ

[27] = molecular target: T1, 5-hydroxytryptamine receptor 6; experiment: Displacement of [3H]LSD from human recombinant 5-HT6 receptor at 10^-6 M after 120 mins by scintillation counting analysis relative to control
[28] = molecular target: 5-hydroxytryptamine receptor 7 (Homo sapiens, UniProt P34969); experiment: Antagonist activity at human 5-HT7R expressed in human DLD1 cells assessed as inhibition of serotonin-induced cAMP accumulation at 10^-6 M by chemiluminescence-based assay; type: functional, cell-based
5-hydroxytryptamine receptor 7, sequence (P34969 whole entry): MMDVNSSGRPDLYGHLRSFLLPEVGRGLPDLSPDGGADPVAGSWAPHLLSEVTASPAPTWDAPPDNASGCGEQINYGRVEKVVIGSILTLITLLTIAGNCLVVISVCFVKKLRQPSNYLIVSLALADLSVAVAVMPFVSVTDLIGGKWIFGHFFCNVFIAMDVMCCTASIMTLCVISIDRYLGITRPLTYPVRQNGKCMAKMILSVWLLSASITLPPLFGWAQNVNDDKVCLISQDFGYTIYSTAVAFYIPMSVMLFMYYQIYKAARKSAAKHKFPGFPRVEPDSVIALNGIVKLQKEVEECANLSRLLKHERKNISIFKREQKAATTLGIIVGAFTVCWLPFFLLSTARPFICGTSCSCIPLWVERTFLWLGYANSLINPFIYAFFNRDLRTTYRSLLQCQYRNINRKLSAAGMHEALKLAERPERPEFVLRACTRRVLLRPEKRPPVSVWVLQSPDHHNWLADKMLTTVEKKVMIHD

[29] = molecular target: T2, 5-hydroxytryptamine receptor 1A (Homo sapiens) (UniProt P08908); experiment: Partial agonist activity at human 5-HT1AR expressed in CHO-K1 cells assessed as increase in calcium flux by fluorimetric method; type: functional, cell-based
T2 sequence (whole entry): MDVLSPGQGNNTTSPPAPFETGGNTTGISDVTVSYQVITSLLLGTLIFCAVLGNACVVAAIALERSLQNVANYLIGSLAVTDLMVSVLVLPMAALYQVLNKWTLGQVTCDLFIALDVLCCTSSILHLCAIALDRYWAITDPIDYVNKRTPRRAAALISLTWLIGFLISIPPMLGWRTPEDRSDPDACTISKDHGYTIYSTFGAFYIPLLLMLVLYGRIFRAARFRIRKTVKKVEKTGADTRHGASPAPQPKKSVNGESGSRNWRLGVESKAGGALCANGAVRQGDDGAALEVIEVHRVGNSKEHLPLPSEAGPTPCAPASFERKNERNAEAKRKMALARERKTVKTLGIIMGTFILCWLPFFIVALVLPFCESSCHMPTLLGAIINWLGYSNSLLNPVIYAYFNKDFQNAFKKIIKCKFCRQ

D(3) dopamine receptor (Homo sapiens), sequence (P35462 whole entry): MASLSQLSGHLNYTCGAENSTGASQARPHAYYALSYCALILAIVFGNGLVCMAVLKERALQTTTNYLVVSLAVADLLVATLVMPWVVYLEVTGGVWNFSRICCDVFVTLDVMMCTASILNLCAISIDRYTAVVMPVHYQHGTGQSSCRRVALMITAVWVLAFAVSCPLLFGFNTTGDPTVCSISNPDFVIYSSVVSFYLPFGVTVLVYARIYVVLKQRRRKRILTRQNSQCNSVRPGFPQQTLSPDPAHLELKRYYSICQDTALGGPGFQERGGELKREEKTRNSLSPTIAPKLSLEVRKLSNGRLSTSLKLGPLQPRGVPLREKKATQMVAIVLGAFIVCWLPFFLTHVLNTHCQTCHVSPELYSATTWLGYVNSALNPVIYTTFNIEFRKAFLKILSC

| Compound | Time [2] [ms] | Time [3] [ms] | Time [4] [ms] | Time [6] [ms] | Time [7] [ms] | concentration at 0.5 h [8] [µM] | Time [9] [ms] | minimal effective dose [11] [mg/kg] | Time [12] [ms] | Activity [15] | concentration at 0.5 h [16] [µM] | Time [17] [ms] | Time [18] [ms] | Time [19] [ms] | IC50 [20] [µM] | further results |
| --- | --- | --- | --- | --- | --- | --- | --- | --- | --- | --- | --- | --- | --- | --- | --- | --- |
| O=S(=O)(c1cncc2ccccc12)N1CCC[C@H]1CCN1CCN(c2nsc3ccccc23)CC1 | 59 | 213 | 272.2 | 210.6 | 125.4 | 0.177 | 273.4 | 3 | 25.4 | Non-Toxic | 0.177 | 61 | 121.8 | 269.6 | > 100 | Kb [1]: 0.0086 µM; Kb [5]: 0.003 µM; Activity [10]: Non-Toxic; Ki [13]: 0.313 µM; Kb [14]: 0.974 µM |
| O=S(=O)(c1cncc2ccccc12)N1CCC[C@H]1CCN1CCN(c2cccc3sccc23)CC1 | 62.8 | 214 | 267 | 220 | 125.2 | 0.245 | 268 | 1 | 30.8 | Non-Toxic | 0.105 | 63.4 | 127.4 | 265 | > 100 | Activity [21]: Non-Toxic; inhibition [22]: 19%; inhibition [5]: 14%; inhibition [23]: 11%; Kb [24]: 0.0028 µM; inhibition [25]: 10%; inhibition [26]: 99%; inhibition [27]: 23%; inhibition [28]: 94%; Kb [29]: 0.0283 µM |

— ChEMBL document CHEMBL4229332, “Novel multi-target azinesulfonamides of cyclic amine derivatives as potential antipsychotics with pro-social and pro-cognitive effects” (Eur J Med Chem, 2018)
